In patent publication US20020137929A1, “1 - (3-heterocyclylphenyl) isothiourea, -isourea, -guanidine and -amidine herbicidal agents” (Intellectual Property Department, BASF Aktiengesellschaft, priority 1998, published 2002):

Assays:
CASOB (Sicklepod) = assay: Postemergence herbicidal evaluation; format: in vivo, Cassia obtusifolia; details: postemergence
In short: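 Visual 0-9 injury score (stand, vigor, malformation, size, chlorosis, appearance vs untreated) taken four to five weeks post-spray, averaged across repeat tests. Test plants about two weeks old; foliar spray of acetone/water (1:1) with 0.5% surfactant delivering ~0.0156-0.500 kg active/ha.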

[1] = test system: GLXMAW (Soybean, Williams); assay: Preemergence herbicidal evaluation; format: in vivo, Glycine max, (L.) Merr. cv Williams; details: rated 4-5 weeks after treatment
In short: (§1)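 Seeds were mixed with potting soil and planted on about one inch of soil, then sprayed with test compound in aqueous acetone at about 0.0156 to 0.500 kg per hectare. Plants grew under standard greenhouse care and were visually rated 0-9 against untreated controls 4-5 weeks post-treatment.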

ORYSAT (Rice, Tebonnet) = assay: Preemergence herbicidal evaluation; format: in vivo, Oryza sativa, (L.) Tebonnet; details: rated 4-5 weeks after treatment
In short: as §1

[2] = test system: TRZAWR (Wheat, Winter, cv Riband); assay: Preemergence herbicidal evaluation; format: in vivo, Triticum aestivum; details: rated 4-5 weeks after treatment
In short: as §1

[3] = test system: SAGPY (Arrowhead (Pygmaea)); assay: Preemergence weed control under flooded paddy conditions; format: in vivo, Sagittaria pygmaea; details: rated 3-4 weeks after treatment
In short: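 Flooded-pot preemergence screen with silt loam and seeds in the upper 0.5 cm. Dose about 0.0313 to 0.500 kg/ha, delivered into flood water; visual 0-9 score after 3 to 4 weeks.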

[4] = rate 0.0156 kg/ha, rating scale 0-9
[5] = rate 0.0313 kg/ha, rating scale 0-9
[6] = rate 0.0625 kg/ha, rating scale 0-9
[7] = rate 0.1250 kg/ha, rating scale 0-9
[8] = rate 0.2500 kg/ha, rating scale 0-9

For `Cc1cccc(CN2C(=O)CSC2=Nc2cc(-n3c(=O)cc(C(F)(F)F)n(C)c3=O)c(F)cc2Cl)c1` [Compound 130, 3-{4-Chloro-2-fluoro-5-{[3-(m-methylbenzyl)-4-oxo-2-thiazolidinylidene]amino}phenyl}-1-methyl-6-(trifluoromethyl)-2,4 (1H, 3H)-pyrimidinedione], the “herbicidal rating CASOB” value (CASOB (Sicklepod); rate 0.0156 kg/ha) was 2.0, the “herbicidal rating CASOB” value (CASOB (Sicklepod); rate 0.0313 kg/ha) was 4.0 and the “herbicidal rating CASOB” value (CASOB (Sicklepod); rate 0.0625 kg/ha) was 5.0. The “Preemergence herbicidal rating GLXMAW” value [1, 4] was 0.0, the “Preemergence herbicidal rating GLXMAW” value [1, 5] was 0.0 and the “Preemergence herbicidal rating GLXMAW” value [1, 6] was 2.0. For the same compound, the “Preemergence herbicidal rating GLXMAW” value [1, 7] was 3.0, the “Preemergence herbicidal rating GLXMAW” value [1, 8] was 5.0 and the “Preemergence herbicidal rating ORYSAT” value (ORYSAT (Rice, Tebonnet); [4]) was 0.0. For the same compound, the “Preemergence herbicidal rating ORYSAT” value (ORYSAT (Rice, Tebonnet); [5]) was 0.0, the “Preemergence herbicidal rating ORYSAT” value (ORYSAT (Rice, Tebonnet); [6]) was 1.0 and the “Preemergence herbicidal rating ORYSAT” value (ORYSAT (Rice, Tebonnet); [7]) was 3.0. For the same compound, the “Preemergence herbicidal rating ORYSAT” value (ORYSAT (Rice, Tebonnet); [8]) was 6.0, the “Preemergence herbicidal rating TRZAWR” value [2, 4] was 0.0 and the “Preemergence herbicidal rating TRZAWR” value [2, 5] was 0.0. The “Preemergence herbicidal rating TRZAWR” value [2, 6] was 1.0, the “Preemergence herbicidal rating TRZAWR” value [2, 7] was 3.0 and the “Preemergence herbicidal rating TRZAWR” value [2, 8] was 6.0. The “herbicidal effect rating, SAGPY” value ([3]; 0.0313 kg/ha) was 4.0, the “herbicidal effect rating, SAGPY” value ([3]; 0.0625 kg/ha) was 4.0 and the “herbicidal effect rating, SAGPY” value ([3]; 0.1250 kg/ha) was 0.0. The “herbicidal effect rating, SAGPY” value ([3]; 0.2500 kg/ha) was 3.0.
In the case of `CCOC(=O)CN1C(=O)C(SC)SC1=Nc1cc(-n2c(=O)cc(C(F)(F)F)n(C)c2=O)c(F)cc1Cl` (stereo not drawn) [Compound 125, Ethyl 2-{{2-chloro-5-[3,6-dihydro-3-methyl-2,6-dioxo-4-(trifluoromethyl)-1(2H)-pyrimidinyl]-4-fluorophenyl}imino}-5-(methylthio)-4-oxo-3-thiazolidineacetate], the “herbicidal rating CASOB” value (CASOB (Sicklepod); rate 0.0156 kg/ha) is reported as 1.0, the “herbicidal rating CASOB” value (CASOB (Sicklepod); rate 0.0313 kg/ha) is reported as 2.0 and the “herbicidal rating CASOB” value (CASOB (Sicklepod); rate 0.0625 kg/ha) is reported as 2.0. For the same compound, the “Preemergence herbicidal rating GLXMAW” value ([1]; rate 0.0156 kg/ha) was 0.0, the “Preemergence herbicidal rating GLXMAW” value ([1]; rate 0.0313 kg/ha) was 0.0 and the “Preemergence herbicidal rating GLXMAW” value ([1]; rate 0.0625 kg/ha) was 0.0. The “Preemergence herbicidal rating GLXMAW” value ([1]; rate 0.1250 kg/ha) was 3.0, the “Preemergence herbicidal rating GLXMAW” value ([1]; rate 0.2500 kg/ha) was 4.0 and the “Preemergence herbicidal rating GLXMAW” value ([1]; rate 0.5000 kg/ha) was 7.0. The “Preemergence herbicidal rating ORYSAT” value (ORYSAT (Rice, Tebonnet); rate 0.0156 kg/ha) was 0.0, the “Preemergence herbicidal rating ORYSAT” value (ORYSAT (Rice, Tebonnet); rate 0.0313 kg/ha) was 0.0 and the “Preemergence herbicidal rating ORYSAT” value (ORYSAT (Rice, Tebonnet); rate 0.0625 kg/ha) was 1.0. The “Preemergence herbicidal rating ORYSAT” value (ORYSAT (Rice, Tebonnet); rate 0.1250 kg/ha) was 1.0, the “Preemergence herbicidal rating ORYSAT” value (ORYSAT (Rice, Tebonnet); rate 0.2500 kg/ha) was 4.0 and the “Preemergence herbicidal rating ORYSAT” value (ORYSAT (Rice, Tebonnet); rate 0.5000 kg/ha) was 4.0. The “Preemergence herbicidal rating TRZAWR” value ([2]; rate 0.0156 kg/ha) was 0.0, the “Preemergence herbicidal rating TRZAWR” value ([2]; rate 0.0313 kg/ha) was 0.0 and the “Preemergence herbicidal rating TRZAWR” value ([2]; rate 0.0625 kg/ha) was 1.0. The “Preemergence herbicidal rating TRZAWR” value ([2]; rate 0.1250 kg/ha) was 1.0, the “Preemergence herbicidal rating TRZAWR” value ([2]; rate 0.2500 kg/ha) was 4.0 and the “Preemergence herbicidal rating TRZAWR” value ([2]; rate 0.5000 kg/ha) was 5.0. The “herbicidal effect rating, SAGPY” value ([3]; 0.0313 kg/ha) was 3.0, the “herbicidal effect rating, SAGPY” value ([3]; 0.0625 kg/ha) was 4.0 and the “herbicidal effect rating, SAGPY” value ([3]; 0.1250 kg/ha) was 4.0. The “herbicidal effect rating, SAGPY” value ([3]; 0.2500 kg/ha) was 9.0.
`CCOC(=O)C(c1ccc(Cl)cc1)N1C(=O)CSC1=Nc1cc(-n2c(=O)cc(C(F)(F)F)n(C)c2=O)c(F)cc1Cl` (racemic) [Compound 79, Ethyl α-(p-chlorophenyl)-2-{{2-chloro-5-[3,6-dihydro-3-methyl-2,6-dioxo-4-(trifluoromethyl)-1(2H)-pyrimidinyl]-4-fluorophenyl}imino}-4-oxo-3-thiazolidineacetate, DL-] gave a CASOB herbicidal rating (CASOB (Sicklepod); rate 0.0158 kg/ha) of 1.0, a CASOB herbicidal rating (CASOB (Sicklepod); rate 0.0315 kg/ha) of 1.0 and a CASOB herbicidal rating (CASOB (Sicklepod); rate 0.0630 kg/ha) of 1.0. The “Preemergence herbicidal rating GLXMAW” value ([1]; rate 0.0313 kg/ha) was 1.0, the “Preemergence herbicidal rating GLXMAW” value ([1]; rate 0.0625 kg/ha) was 1.0 and the “Preemergence herbicidal rating GLXMAW” value ([1]; rate 0.1250 kg/ha) was 0.0. For the same compound, the “Preemergence herbicidal rating GLXMAW” value ([1]; rate 0.2500 kg/ha) was 2.0, the “Preemergence herbicidal rating ORYSAT” value (ORYSAT (Rice, Tebonnet); rate 0.0313 kg/ha) was 0.0 and the “Preemergence herbicidal rating ORYSAT” value (ORYSAT (Rice, Tebonnet); rate 0.0625 kg/ha) was 1.0. For the same compound, the “Preemergence herbicidal rating ORYSAT” value (ORYSAT (Rice, Tebonnet); rate 0.1250 kg/ha) was 0.0, the “Preemergence herbicidal rating ORYSAT” value (ORYSAT (Rice, Tebonnet); rate 0.2500 kg/ha) was 1.0 and the “Preemergence herbicidal rating TRZAWR” value ([2]; rate 0.0313 kg/ha) was 0.0. The “Preemergence herbicidal rating TRZAWR” value ([2]; rate 0.0625 kg/ha) was 1.0, the “Preemergence herbicidal rating TRZAWR” value ([2]; rate 0.1250 kg/ha) was 0.0 and the “Preemergence herbicidal rating TRZAWR” value ([2]; rate 0.2500 kg/ha) was 1.0. For the same compound, the “SAGPY herbicidal effect rating” value ([3]; 0.0313 kg/ha) was 0.0, the “SAGPY herbicidal effect rating” value ([3]; 0.0625 kg/ha) was 0.0 and the “SAGPY herbicidal effect rating” value ([3]; 0.1250 kg/ha) was 4.0. The “SAGPY herbicidal effect rating” value ([3]; 0.2500 kg/ha) was 4.0.
